Experimental data taken from patent US20250129135A1, “Multi-Agonist and Use Thereof” (priority 2021, published 2025).
Starred links: 1 amine or outer side, 2 acyl side, 3 side chain; linkers in the order of their positions; H or OH if unused. Non-standard residues stand in square brackets, D forms with d. Residues, ends and D or L forms follow the SMILES beside them. Groups on a side chain read outwards from the residue. *: point of attachment. C20 diacid = O=C(O)CCCCCCCCCCCCCCCCCCC(=O)*; αMePhe(2-F) = C[C@](N)(Cc1ccccc1F)C(=O)O; γGlu = O=C(O)[C@H](CCC(=O)[*:2])N[*:1]; αMeL = CC(C)C[C@](C)(N)C(=O)O; AEEA = NCCOCCOCC(=O)O; Ac3c = NC1(C(=O)O)CC1; Aib = CC(C)(N)C(=O)O

How the values were obtained:
[1] = Rat pharmacokinetics (PK) study; type: in vivo; conditions: sc, male SD rats, subcutaneous 30 nmol/kg, plasma
Protocol: 7˜9 weeks old male SD rats (220-250 g, 3 rats/group) were subjected to subcutaneous injection of 30 nmol/kg compound. After administration, blood was collected through the jugular vein at time points 0.25, 2, 4, 8, 12, 16, 24, 48, 96, 120, and 144 hours. The blood was processed to obtain plasma samples and analyzed using LC-MS/MS. The blood concentration time curve was analyzed using Phoenix WinNonlin version 6.3 software (non compartment model), and PK parameters and half-life were calculated.

RIN-m5F cells = type: cell-based, rat; conditions: for Rel. A (Relative Activity) on RIN-m5F: relative to GLP-1(7-37)
In short: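 After 60 min room-temperature exposure of HBSS-suspended RIN-m5F cells to compound and another 60 min with detection reagent, cellular cAMP level was determined.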

C57 BL/6J DIO mice = assay: In vivo pharmacodynamics in high-fat diet induced obesity (DIO) mice; design: species or system mouse; conditions: Mean±SEM; for Weight change: Table 6-1; for LDL-C / TC (total cholesterol) / TG (plasma triglycerides): Table 7-1
Text: High-fat diet induced obesity (DIO) mice have characteristics such as obesity, elevated blood sugar, insulin resistance, and lipid abnormalities, all of which are very significant metabolic syndromes similar to a human body. The effects of the compounds of the present application on body weight, food intake, blood sugar, and lipids in C57 BL/6J DIO mice were studied.
Obesity was induced in mice by feeding with a high-fat diet (60 kcal % of calories from fat). […] After grouping, one animal was raised in each cage for one week, during which each of the animals was injected subcutaneously (S.C.) with a solvent (1×PBS, 5 ml/kg) to pre-adapt the experimental operation process.
After the preparation of animals, vehicle control or compounds were administered to groups of animals by subcutaneous injection, in which the compounds were dissolved in 1×PBS, the dosage was 5 ml/kg, and the administration operation was started at 9:00 am and conducted once every three days (Q3D) for 15 days. Throughout the entire experimental study, animal weight and food intake were measured daily before administration, and compared with initial weight and food intake of the same animal before administration to calculate a percentage change in animal weight (%) and cumulative food intake, so as to evaluate the impact of compounds on changes in body weight and food intake.
At the end point of the experiment (Day 15), the body weight of the mice was measured, and then fasting blood glucose was measured by taking blood from the tail tip of broken tail without anesthesia. After the blood collection, the animals were anesthetized with CO2 and euthanized. Then, blood was taken from the heart and plasma was separated by centrifugation. The plasma was used to measure total cholesterol (TC), low-density lipoprotein cholesterol (LDL-C), triglycerides (TG), and blood insulin content. The liver was separated for homogenization, and then centrifuged to obtain the supernatant for determining triglyceride content in the liver.
All results were expressed in Mean±SEM, and the results were analyzed by one-way ANOVA using GraphPad Prism 5 software, followed by Dunnett's post hoc test compared to the Vehicle control group. The difference at the p<0.05 level was considered statistically significant.

[2] = system: human primary liver cells; type: cell-based; conditions: for Rel. A (Relative Activity) on human primary liver cells: relative to GCG
In short: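 cAMP readout after 60 min with detection reagent, following 60 min room-temperature compound incubation. Cells were primary human liver cells thawed at 37° C and resuspended in HBSS.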

3T3-L1 adipocytes = conditions: for Rel. A (Relative Activity) on 3T3-L1 adipocyte: relative to GIP
In short: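 Compound-induced cAMP was measured in mature 3T3-L1 adipocytes after 60 min room-temperature exposure to a 10-concentration, 3-fold dilution series, followed by 60 min with kit detection reagent and curve fitting. Differentiation used IBMX/dexamethasone/insulin (5 days), insulin with 10 uM rosiglitazone (3 days), then 2–3 days in 10% FBS.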

Human GCG R = target: T1, Human GCG R (Homo sapiens, UniProt P47871); assay: cAMP (HTRF) activity in HEK-293 cells stably overexpressing human GCG receptor; type: cell-based; conditions: EC50 of human GCG / EC50 of compound
T1 construct: expressed in transfected cells; host or cells: HEK-293
T1 sequence (P47871 26-477): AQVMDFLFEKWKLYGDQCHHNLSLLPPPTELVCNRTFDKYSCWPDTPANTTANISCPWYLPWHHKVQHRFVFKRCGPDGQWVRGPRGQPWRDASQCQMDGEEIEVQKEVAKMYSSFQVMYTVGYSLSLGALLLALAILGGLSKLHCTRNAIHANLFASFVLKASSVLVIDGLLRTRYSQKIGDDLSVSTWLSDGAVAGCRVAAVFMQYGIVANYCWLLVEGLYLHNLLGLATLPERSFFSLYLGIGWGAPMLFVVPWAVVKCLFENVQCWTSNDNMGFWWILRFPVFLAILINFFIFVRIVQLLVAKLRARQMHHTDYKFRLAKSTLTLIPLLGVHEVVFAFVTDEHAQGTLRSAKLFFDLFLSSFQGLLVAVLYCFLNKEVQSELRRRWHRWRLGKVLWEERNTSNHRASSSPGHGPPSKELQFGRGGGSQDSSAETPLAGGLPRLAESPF
In short: (§1)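 Cells resuspended in HBSS are incubated with compound for 60 min at room temperature, then with HTRF cAMP detection reagent for a further 60 min. Concentration-response fits give agonist EC50 values in nM.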

Human GLP-1R = Human GLP-1R (Homo sapiens, UniProt P43220); assay: cAMP (HTRF) activity in HEK-293 cells stably overexpressing human GLP-1 receptor; type: cell-based; design: expressed in transfected cells; host or cells: HEK-293; conditions: for Human GLP-1R Rel. A (Relative Activity): EC50 of human GLP-1 (7-37) / EC50 of compound
Chain of Human GLP-1R (P43220 24-463): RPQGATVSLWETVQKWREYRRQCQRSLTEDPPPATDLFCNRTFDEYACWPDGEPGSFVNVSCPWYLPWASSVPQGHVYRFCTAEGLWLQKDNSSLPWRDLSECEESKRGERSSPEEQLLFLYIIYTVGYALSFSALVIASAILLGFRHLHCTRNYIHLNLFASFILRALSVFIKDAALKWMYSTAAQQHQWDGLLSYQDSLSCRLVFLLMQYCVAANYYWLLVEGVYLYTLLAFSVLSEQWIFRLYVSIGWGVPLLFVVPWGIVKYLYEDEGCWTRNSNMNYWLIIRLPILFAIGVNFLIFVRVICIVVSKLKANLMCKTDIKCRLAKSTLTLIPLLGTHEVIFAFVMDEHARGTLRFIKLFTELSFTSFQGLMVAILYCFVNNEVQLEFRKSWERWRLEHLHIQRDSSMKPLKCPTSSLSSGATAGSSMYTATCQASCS
In short: as §1

Human GIP R = target: T2, Human GIP R (Homo sapiens, UniProt P48546); assay: cAMP (HTRF) activity in CHO cells stably overexpressing GIP receptor; type: cell-based; conditions: for Human GIP R Rel. A (Relative Activity): EC50 of human GIP / EC50 of compound
T2 construct: expressed in transfected cells; host or cells: CHO
T2 sequence (P48546 22-466): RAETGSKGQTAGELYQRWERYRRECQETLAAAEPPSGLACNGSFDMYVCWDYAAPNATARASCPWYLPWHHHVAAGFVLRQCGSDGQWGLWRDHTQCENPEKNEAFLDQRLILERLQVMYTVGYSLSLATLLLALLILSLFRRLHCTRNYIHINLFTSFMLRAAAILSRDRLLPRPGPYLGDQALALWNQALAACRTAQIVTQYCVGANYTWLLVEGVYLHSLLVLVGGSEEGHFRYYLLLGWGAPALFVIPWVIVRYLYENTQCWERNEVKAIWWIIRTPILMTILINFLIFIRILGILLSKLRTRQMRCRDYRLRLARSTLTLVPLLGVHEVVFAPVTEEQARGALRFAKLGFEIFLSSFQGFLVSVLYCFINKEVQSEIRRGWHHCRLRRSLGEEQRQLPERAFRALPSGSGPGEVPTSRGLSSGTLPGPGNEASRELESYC
In short: as §1

[3] = stable transfected cell cAMP activity, at least 3 independent tests

SMILES	EC50 (RIN-m5F cells)	Liver TG (C57 BL/6J DIO mice; Table 9-1, 3 nmol/kg, Day 15)	EC50 [2]	EC50 (3T3-L1 adipocytes)	Rel. A (Relative Activity) on RIN-m5F (RIN-m5F cells)	Rel. A (Relative Activity) on human primary liver cells [2]	Human GCG R Rel. A (Relative Activity) (Human GCG R)	Rel. A (Relative Activity) on 3T3-L1 adipocyte (3T3-L1 adipocytes)	Human GLP-1R Rel. A (Relative Activity) (Human GLP-1R)	Human GIP R Rel. A (Relative Activity) (Human GIP R)	other results
CC[C@H](C)[C@H](NC(=O)[C@H](Cc1ccccc1)NC(=O)[C@H](C)NC(=O)C(C)(C)NC(=O)[C@H](CCC(N)=O)NC(=O)[C@H](C)NC(=O)[C@H](CCCCNC(=O)COCCOCCNC(=O)COCCOCCNC(=O)CC[C@H](NC(=O)CCCCCCCCCCCCCCCCCCC(=O)O)C(=O)O)NC(=O)[C@H](CCCCN)NC(=O)[C@H](CC(=O)O)NC(=O)[C@H](CC(C)C)NC(=O)[C@](C)(CC(C)C)NC(=O)[C@@H](NC(=O)[C@H](CO)NC(=O)[C@H](Cc1ccc(O)cc1)NC(=O)[C@H](CC(=O)O)NC(=O)[C@H](CO)NC(=O)[C@@H](NC(=O)[C@](C)(Cc1ccccc1)NC(=O)[C@@H](NC(=O)CNC(=O)[C@H](CCC(N)=O)NC(=O)C(C)(C)NC(=O)[C@@H](N)Cc1ccc(O)cc1)[C@@H](C)O)[C@@H](C)O)[C@@H](C)CC)C(=O)N[C@@H](CCC(=O)O)C(=O)N[C@@H](Cc1ccc(O)cc1)C(=O)N[C@@H](CC(C)C)C(=O)N[C@@H](CC(C)C)C(=O)N[C@@H](CCC(=O)O)C(=O)N[C@@H](CO)C(=O)N[C@@H](Cc1c[nH]cn1)C(=O)N1CCC[C@H]1C(=O)N[C@@H](CO)C(=O)N[C@@H](CO)C(=O)NCC(=O)N[C@@H](C)C(=O)N1CCC[C@H]1C(=O)N1CCC[C@H]1C(=O)NC1(C(=O)N[C@@H](CO)C(N)=O)CC1 [Compound 3]	0.4 nM	32.2 ± 2.99 mg	1.59 nM	1.87 nM							AUC(0-t) [1]: 6.69 µM·h; Cmax [1]: 0.149 µM; Tmax [1]: 21.3 h; half-life [1]: 19.1 h; Weight change (C57 BL/6J DIO mice; 3 nmol/kg s.c. Q3D for 15 days): −21.2 ± 0.75%; Weight change (C57 BL/6J DIO mice; 10 nmol/kg s.c. Q3D for 15 days): −32.4 ± 2.94%; Weight change (C57 BL/6J DIO mice; 30 nmol/kg s.c. Q3D for 15 days): −51.6 ± 1.21%; LDL-C (C57 BL/6J DIO mice; 3 nmol/kg, Day 15): 0.52 ± 0.033 mM; TC (total cholesterol) (C57 BL/6J DIO mice; 3 nmol/kg, Day 15): 3.42 ± 0.214 mM; TG (plasma triglycerides) (C57 BL/6J DIO mice; 3 nmol/kg, Day 15): 0.87 ± 0.066 mM; LDL-C (C57 BL/6J DIO mice; 30 nmol/kg, Day 15): 0.37 ± 0.035 mM; TC (total cholesterol) (C57 BL/6J DIO mice; 30 nmol/kg, Day 15): 2.15 ± 0.079 mM; TG (plasma triglycerides) (C57 BL/6J DIO mice; 30 nmol/kg, Day 15): 0.55 ± 0.022 mM; Blood sugar (fasting blood glucose) (C57 BL/6J DIO mice; Table 8-1, 3 nmol/kg, Day 15): 107.5 ± 5.17 mg/dL; Insulin (blood) (C57 BL/6J DIO mice; Table 8-1, 3 nmol/kg, Day 15): 25.4 ± 16.90 mIU/L
CC[C@H](C)[C@H](NC(=O)[C@H](Cc1ccccc1)NC(=O)[C@H](C)NC(=O)C(C)(C)NC(=O)[C@H](CCC(N)=O)NC(=O)[C@H](C)NC(=O)[C@H](CCCCNC(=O)COCCOCCNC(=O)COCCOCCNC(=O)CC[C@H](NC(=O)CCCCCCCCCCCCCCCCCCC(=O)O)C(=O)O)NC(=O)[C@H](CCCCN)NC(=O)[C@H](CC(=O)O)NC(=O)[C@H](CC(C)C)NC(=O)[C@H](Cc1ccccc1)NC(=O)[C@@H](NC(=O)[C@H](CO)NC(=O)[C@H](Cc1ccc(O)cc1)NC(=O)[C@H](CC(=O)O)NC(=O)[C@H](CO)NC(=O)[C@@H](NC(=O)[C@](C)(Cc1ccccc1F)NC(=O)[C@@H](NC(=O)CNC(=O)[C@H](CCC(N)=O)NC(=O)C(C)(C)NC(=O)[C@@H](N)Cc1ccc(O)cc1)[C@@H](C)O)[C@@H](C)O)[C@@H](C)CC)C(=O)N[C@@H](CCC(=O)O)C(=O)N[C@@H](Cc1ccccc1)C(=O)N[C@@H](CC(C)C)C(=O)N[C@@H](CC(C)C)C(=O)N[C@@H](CCC(=O)O)C(=O)N[C@@H](CO)C(=O)N[C@@H](Cc1c[nH]cn1)C(=O)N1CCC[C@H]1C(=O)N[C@@H](CO)C(=O)N[C@@H](CO)C(=O)NCC(=O)N[C@@H](C)C(=O)N1CCC[C@H]1C(=O)N1CCC[C@H]1C(=O)NC1(C(=O)N[C@@H](CO)C(N)=O)CC1 [Compound 10] (H-Y[Aib]QGT[αMePhe(2-F)]TSDYSIFLDKK([AEEA-AEEA-γGlu-C20 diacid])AQ[Aib]AFIEFLLESHPSSGAPP[Ac3c]S-NH2)	0.274 nM	81.6 ± 8.50 mg	5.19 nM	6.16 nM	376.64%	75.00%	75.00%	61.76%	93.62%	861.90%	EC50 (Human GIP R; [3]): 0.021 nM
CC[C@H](C)[C@H](NC(=O)[C@H](Cc1ccccc1)NC(=O)[C@H](C)NC(=O)C(C)(C)NC(=O)[C@H](CCC(N)=O)NC(=O)[C@H](C)NC(=O)[C@H](CCCCNC(=O)COCCOCCNC(=O)COCCOCCNC(=O)CC[C@H](NC(=O)CCCCCCCCCCCCCCCCCCC(=O)O)C(=O)O)NC(=O)[C@H](CCCCN)NC(=O)[C@H](CC(=O)O)NC(=O)[C@H](CC(C)C)NC(=O)[C@](C)(CC(C)C)NC(=O)[C@@H](NC(=O)[C@H](CO)NC(=O)[C@H](Cc1ccc(O)cc1)NC(=O)[C@H](CC(=O)O)NC(=O)[C@H](CO)NC(=O)[C@@H](NC(=O)[C@](C)(Cc1ccccc1F)NC(=O)[C@@H](NC(=O)CNC(=O)[C@H](CCC(N)=O)NC(=O)C(C)(C)NC(=O)[C@@H](N)Cc1ccc(O)cc1)[C@@H](C)O)[C@@H](C)O)[C@@H](C)CC)C(=O)N[C@@H](CCC(=O)O)C(=O)N[C@@H](Cc1ccccc1)C(=O)N[C@@H](CC(C)C)C(=O)N[C@@H](CC(C)C)C(=O)N[C@@H](CCC(=O)O)C(=O)N[C@@H](CO)C(=O)N[C@@H](Cc1c[nH]cn1)C(=O)N1CCC[C@H]1C(=O)N[C@@H](CO)C(=O)N[C@@H](CO)C(=O)NC(C)(C)C(=O)N[C@@H](Cc1c[nH]cn1)C(=O)N1CCC[C@H]1C(=O)N1CCC[C@H]1C(=O)NC1(C(=O)N[C@@H](CO)C(N)=O)CC1 [Compound 40] (H-Y[Aib]QGT[αMePhe(2-F)]TSDYSI[αMeL]LDKK([AEEA-AEEA-γGlu-C20 diacid])AQ[Aib]AFIEFLLESHPSS[Aib]HPP[Ac3c]S-NH2)	0.16 nM		1.07 nM	2.56 nM	645.00%	364.33%	34.13%	148.46%	275.00%	150.83%	Liver TG (C57 BL/6J DIO mice; Table 9-2, 3 nmol/kg, Day 15): 42.1 ± 5.22 mg; EC50 (Human GLP-1R; [3]): 0.016 nM
